In patent publication US8637511B2, “Aminopyrimidines useful as kinase inhibitors” (Vertex Pharmaceuticals Incorporated, priority 2005, dated 2014) one finds Ki data, which are given here for 23 molecules.

Holding throughout (type): biochemical
The target of one test is Aurora-1 (Aurora B) (Homo sapiens, UniProt Q96GD4). Briefly: Aurora-1 (Aurora B) inhibition assay (radiometric). Particulars: read-out: Aurora B kinase Ki value. The method, boiled down:
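Ki values come from non-linear regression of background-corrected initial-rate data. The enzyme was preincubated 10 min at 25° C with compound, then reacted 3 h with 800 μM (final) [γ-^33P]-ATP in HEPES pH 7.5/MgCl2/BSA/glycerol buffer. The reaction was stopped with phosphoric acid and substrate-bound ^33P counted on phosphocellulose.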

In a further test the target is T1, Aurora-2 (Aurora A) (Homo sapiens, UniProt O14965).
T1 sequence (O14965 1-403): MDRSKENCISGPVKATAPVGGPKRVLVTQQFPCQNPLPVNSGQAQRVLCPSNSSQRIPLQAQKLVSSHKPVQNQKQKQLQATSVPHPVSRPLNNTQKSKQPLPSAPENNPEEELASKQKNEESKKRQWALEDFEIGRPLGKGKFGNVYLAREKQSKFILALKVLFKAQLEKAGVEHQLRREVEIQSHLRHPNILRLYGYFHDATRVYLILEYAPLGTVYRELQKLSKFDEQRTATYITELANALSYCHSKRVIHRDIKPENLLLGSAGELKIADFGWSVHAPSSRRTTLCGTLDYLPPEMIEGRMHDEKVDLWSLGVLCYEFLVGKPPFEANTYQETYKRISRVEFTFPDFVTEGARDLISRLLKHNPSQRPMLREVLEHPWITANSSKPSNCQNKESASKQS
Description: Aurora-2 (Aurora A) inhibition assay, coupled enzyme. The method, boiled down: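 These rates came from NADH consumption coupled through pyruvate kinase and lactate dehydrogenase (100 mM Hepes pH 7.5, 10 mM MgCl2, 300 μM NADH). Aurora-2 was present at 40 nM, and the reaction ran at 30 °C after a 10 min preincubation.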

In the next test the target is T2, human Itk kinase (Homo sapiens, UniProt Q08881).
T2 sequence (Q08881 1-620): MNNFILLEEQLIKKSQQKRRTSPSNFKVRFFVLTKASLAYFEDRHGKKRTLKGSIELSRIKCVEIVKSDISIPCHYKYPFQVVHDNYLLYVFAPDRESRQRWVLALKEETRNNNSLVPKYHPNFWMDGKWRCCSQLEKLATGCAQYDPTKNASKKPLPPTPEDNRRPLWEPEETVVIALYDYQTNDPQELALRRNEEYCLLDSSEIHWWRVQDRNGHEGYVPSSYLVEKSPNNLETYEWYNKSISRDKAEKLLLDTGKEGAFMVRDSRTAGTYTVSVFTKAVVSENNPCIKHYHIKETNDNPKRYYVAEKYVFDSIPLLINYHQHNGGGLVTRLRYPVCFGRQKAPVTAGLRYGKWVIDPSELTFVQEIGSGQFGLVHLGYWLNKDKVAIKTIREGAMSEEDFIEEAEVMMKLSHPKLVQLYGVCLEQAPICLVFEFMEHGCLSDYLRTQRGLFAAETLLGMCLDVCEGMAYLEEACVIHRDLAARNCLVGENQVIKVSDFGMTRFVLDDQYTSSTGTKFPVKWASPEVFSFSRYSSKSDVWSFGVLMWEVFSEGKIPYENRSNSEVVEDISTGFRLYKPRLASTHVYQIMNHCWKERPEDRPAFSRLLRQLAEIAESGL
Description: Itk inhibition assay: radioactivity-based assay. The settings on record: Ki(app). The method, boiled down:
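50 nM Itk with 3 μM SAM68 Δ332-443 peptide and 7.5 μM [γ-33P]ATP in MOPS pH 7.0, MgCl2, 25° C; compound (top 50 μM final, 2-fold dilutions, 2% DMSO) preincubated 10 min, reaction 10 min. Phosphocellulose filter capture and scintillation counting; Ki(app) by non-linear regression of initial rates.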

The mark [1] stands for this setting: read-out: Aurora A kinase Ki value.

The structures appear in SMILES notation. Several values for one entry are separate records, joined by “and”; a condition that tells them apart may be missing. Equal values may be shown once. Read-outs that look alike come from different tables or passages of the source.

Sequence of Aurora-1 (Aurora B) (Q96GD4 whole entry): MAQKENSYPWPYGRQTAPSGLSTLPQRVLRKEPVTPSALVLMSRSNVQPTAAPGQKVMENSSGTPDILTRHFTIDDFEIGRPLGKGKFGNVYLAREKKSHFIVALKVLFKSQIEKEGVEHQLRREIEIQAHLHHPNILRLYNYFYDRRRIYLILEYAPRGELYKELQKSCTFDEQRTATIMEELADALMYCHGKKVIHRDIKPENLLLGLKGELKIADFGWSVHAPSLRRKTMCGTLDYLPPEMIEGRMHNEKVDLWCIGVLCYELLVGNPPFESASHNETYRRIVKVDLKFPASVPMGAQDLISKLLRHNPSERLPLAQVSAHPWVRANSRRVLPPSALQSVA

Consider `CC1=NN=C(Nc2cc(N3CCC3)nc(Sc3ccc(NC(=O)c4cccc(C(F)(F)F)c4F)cc3)n2)C1` [Compound 55], for which the Ki is at most 10 nM on Aurora-1 (Aurora B), at most 1 nM at Aurora-2 (Aurora A) and 100 to 1000 nM on human Itk kinase.
Take `Cc1cc(Nc2cc(N3CCC3)nc(Sc3ccc(NC(=O)OC(C)(C)C)cc3)n2)n[nH]1` [Compound 26]: the Ki on Aurora-1 (Aurora B) fell in the range of 50 to 2000 nM; at Aurora-2 (Aurora A) (setting [1]) it was 5 to 200 nM; on human Itk kinase, 1000 to 2000 nM.
As for `Cc1cc(Nc2cc(N3CCC3)nc(Sc3ccc(NC(=O)Cc4ccccc4)cc3)n2)n[nH]1` [Compound 35], the Ki at Aurora-1 (Aurora B) was in the range of 10 to 50 nM; on Aurora-2 (Aurora A) (setting [1]), 1 to 5 nM; on human Itk kinase, 100 to 1000 nM.
The corresponding values for `Cc1cc(Nc2cc(N3CCC3)nc(Sc3ccc(NC(=O)c4ocnc4C)cc3)n2)n[nH]1` [Compound 167] are 50 to 2000 nM, 5 to 200 nM and 1000 to 2000 nM.
Consider `CCNC(=O)c1ccc(Sc2nc(Nc3cc(C)[nH]n3)cc(N3CCC3)n2)cc1` [Compound 20], for which the values for the Ki on Aurora-1 (Aurora B), on Aurora-2 (Aurora A) and on human Itk kinase were 10 to 50 nM, 5 to 200 nM and 100 to 1000 nM, respectively.
Take `Cc1cc(Nc2cc(N3CCC3)nc(Sc3ccc(NC(=O)c4ccc(Cl)cc4Cl)cc3)n2)n[nH]1` [Compound 162]: the Ki was 10 to 50 nM and < 25 nM at Aurora-1 (Aurora B); at most 1 nM at Aurora-2 (Aurora A); 100 to 1000 nM on human Itk kinase.
Take `Cc1cc(Nc2cc(N3CCC3)nc(Sc3ccc(NC(=O)C4CC4)cc3)n2)n[nH]1` [Compound 17]: the Ki on Aurora-1 (Aurora B) fell in the range of 10 to 50 nM; at Aurora-2 (Aurora A) (setting [1]), 1 to 5 nM; at human Itk kinase, 100 to 1000 nM.
The corresponding values for `Cc1cc(Nc2cc(N3CC(F)C3)nc(Sc3ccc(NC(=O)c4ccccc4Cl)cc3)n2)[nH]n1` [Compound 60] are 10 to 50 nM, 1 to 5 nM and at most 100 nM.
In the case of `CCC(=O)Nc1ccc(Sc2nc(Nc3cc(C)n[nH]3)cc(N3CC(C)(C#N)C3)n2)cc1` [Compound 79], the Ki at Aurora-1 (Aurora B) is 10 to 50 nM and < 25 nM; on Aurora-2 (Aurora A) (setting [1]), 1 to 5 nM; on human Itk kinase, 100 to 1000 nM.
In the case of `Cc1cc(Nc2cc(N3CC(OC(C)(C)C)C3)nc(Sc3ccc(NC(=O)c4ccccc4Cl)cc3)n2)[nH]n1` [Compound 66], the values for the Ki at Aurora-1 (Aurora B), on Aurora-2 (Aurora A) and on human Itk kinase were at most 10 nM, at most 1 nM and 100 to 1000 nM, respectively.
For `COC1CN(c2cc(Nc3cc(C)[nH]n3)nc(Sc3ccc(NC(=O)c4ccccc4Cl)cc3)n2)C1` [Compound 12], the Ki on Aurora-1 (Aurora B) was at most 10 nM; on Aurora-2 (Aurora A) it was at most 1 nM; at human Itk kinase it was at most 100 nM.
Consider `Cc1cc(Nc2cc(N3CCC3)nc(Sc3ccc(NC(=O)c4c(F)cccc4N4CCC4)cc3)n2)n[nH]1` [Compound 8], for which the Ki on Aurora-1 (Aurora B) is at most 10 nM; at Aurora-2 (Aurora A) (setting [1]) it was 1 to 5 nM; on human Itk kinase, 100 to 1000 nM.
`Cc1cc(Nc2cc(N3CCC3)nc(Sc3cccc(NC(=O)c4ccccc4Cl)c3)n2)[nH]n1` [Compound 49]: the Ki lay in the range of 50 to 2000 nM at Aurora-1 (Aurora B), 5 to 200 nM on Aurora-2 (Aurora A) (setting [1]) and 1000 to 2000 nM at human Itk kinase.
On to `Cc1cnc(Nc2cc(N3CC(O)C3)nc(Sc3ccc(NC(=O)C4CC4)cc3)n2)s1` [Compound 3], for which the Ki at Aurora-1 (Aurora B) was at most 10 nM; on Aurora-2 (Aurora A) (setting [1]), 1 to 5 nM; at human Itk kinase it was 100 to 1000 nM.
On to `Cc1cc(Nc2cc(N3CCC3)nc(Sc3ccc(N(C)C(=O)c4ccccc4F)cc3)n2)n[nH]1` [Compound 10], for which the Ki at Aurora-1 (Aurora B) lay in the range of 50 to 2000 nM; on Aurora-2 (Aurora A) (setting [1]) it was 5 to 200 nM; at human Itk kinase, 1000 to 2000 nM.
The corresponding values for `Cc1cnc(Nc2cc(N3CCC3)nc(Sc3ccc(NC(=O)C4CC4)cc3)n2)s1` [Compound 4] are 50 to 2000 nM, 1 to 5 nM and 100 to 1000 nM.
On to `Cc1cc(Nc2cc(N3CCC3)nc(Sc3ccc(NC(=O)C4CCCCC4)cc3)n2)n[nH]1` [Compound 30], for which the Ki at Aurora-1 (Aurora B) was 10 to 50 nM; on Aurora-2 (Aurora A) (setting [1]), 1 to 5 nM; at human Itk kinase, 100 to 1000 nM.
Regarding `Cc1cc(Nc2cc(N3CC(C#N)C3)nc(Sc3ccc(NC(=O)c4ccccc4Cl)cc3)n2)n[nH]1` [Compound 16], the Ki on Aurora-1 (Aurora B) is at most 10 nM; on Aurora-2 (Aurora A) (setting [1]) it was at most 1 nM; at human Itk kinase it was at most 100 nM.
For the molecule `CCC(=O)Nc1ccc(Sc2nc(Nc3cc(C)[nH]n3)cc(N3CC(O)C3)n2)cc1` [Compound 15], the Ki at Aurora-1 (Aurora B) is 10 to 50 nM and < 25 nM; on Aurora-2 (Aurora A) it was 1 to 5 nM; at human Itk kinase it was 100 to 1000 nM.
Turning to `Cc1cc(Nc2cc(N3CCC3)nc(Sc3ccc(NC(=O)c4ccc(F)cc4F)cc3)n2)n[nH]1` [Compound 44], the results for the Ki on Aurora-1 (Aurora B), on Aurora-2 (Aurora A) (setting [1]) and on human Itk kinase were 10 to 50 nM, 1 to 5 nM and 100 to 1000 nM, respectively.
The matching figures for `Cc1cnc(Nc2cc(N3CC(N)C3)nc(Sc3ccc(NC(=O)C4CC4)cc3)n2)s1` [Compound 2]: 50 to 2000 nM, 5 to 200 nM and 100 to 1000 nM.
As to `Cc1cc(Nc2cc(N3CCC3)nc(Sc3ccc(NC(=O)Cc4cccc(Cl)c4)cc3)n2)[nH]n1` [Compound 58], the Ki is 10 to 50 nM and < 25 nM on Aurora-1 (Aurora B); 1 to 5 nM at Aurora-2 (Aurora A) (setting [1]); 100 to 1000 nM at human Itk kinase.
Take `Cc1cc(Nc2cc(N3CC(C)C3)nc(Sc3ccc(NC(=O)c4ccccc4Cl)cc3)n2)n[nH]1` [Compound 39]: the Ki at Aurora-1 (Aurora B) was 10 to 50 nM and < 25 nM; on Aurora-2 (Aurora A) (setting [1]), 1 to 5 nM; on human Itk kinase, at most 100 nM.
